Tests used:
[1] = target: Serine/threonine-protein kinase PknB (Mycobacterium tuberculosis) (UniProt P9WI81)
[2] = target: Bone morphogenetic protein receptor type-1B (Homo sapiens) (UniProt O00238)
[3] = target: T1, G protein-coupled receptor kinase 3 (Homo sapiens) (UniProt P35626)
T1 sequence (whole entry): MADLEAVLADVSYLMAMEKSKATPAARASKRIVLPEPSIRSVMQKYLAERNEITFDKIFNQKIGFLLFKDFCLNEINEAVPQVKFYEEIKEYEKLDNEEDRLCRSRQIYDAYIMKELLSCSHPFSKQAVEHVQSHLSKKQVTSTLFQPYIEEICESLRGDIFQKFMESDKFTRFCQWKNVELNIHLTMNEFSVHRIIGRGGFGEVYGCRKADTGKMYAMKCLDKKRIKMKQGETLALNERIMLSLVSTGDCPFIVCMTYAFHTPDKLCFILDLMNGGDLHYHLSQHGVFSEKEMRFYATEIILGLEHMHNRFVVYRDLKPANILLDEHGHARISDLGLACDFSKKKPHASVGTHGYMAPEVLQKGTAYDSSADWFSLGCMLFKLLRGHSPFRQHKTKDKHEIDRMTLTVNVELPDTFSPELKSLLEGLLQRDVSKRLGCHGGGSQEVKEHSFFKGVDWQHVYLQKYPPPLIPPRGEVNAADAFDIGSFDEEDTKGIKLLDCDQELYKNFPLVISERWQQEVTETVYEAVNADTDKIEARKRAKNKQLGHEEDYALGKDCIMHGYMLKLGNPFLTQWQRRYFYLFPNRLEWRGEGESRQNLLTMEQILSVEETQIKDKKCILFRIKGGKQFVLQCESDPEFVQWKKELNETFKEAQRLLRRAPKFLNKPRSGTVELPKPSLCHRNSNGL

[4] = target: Calcium/calmodulin-dependent protein kinase type II subunit gamma (Homo sapiens) (UniProt Q13555)
[5] = target: T2, MAP kinase-activated protein kinase 5 (Homo sapiens) (UniProt Q8IW41)
T2 sequence (whole entry): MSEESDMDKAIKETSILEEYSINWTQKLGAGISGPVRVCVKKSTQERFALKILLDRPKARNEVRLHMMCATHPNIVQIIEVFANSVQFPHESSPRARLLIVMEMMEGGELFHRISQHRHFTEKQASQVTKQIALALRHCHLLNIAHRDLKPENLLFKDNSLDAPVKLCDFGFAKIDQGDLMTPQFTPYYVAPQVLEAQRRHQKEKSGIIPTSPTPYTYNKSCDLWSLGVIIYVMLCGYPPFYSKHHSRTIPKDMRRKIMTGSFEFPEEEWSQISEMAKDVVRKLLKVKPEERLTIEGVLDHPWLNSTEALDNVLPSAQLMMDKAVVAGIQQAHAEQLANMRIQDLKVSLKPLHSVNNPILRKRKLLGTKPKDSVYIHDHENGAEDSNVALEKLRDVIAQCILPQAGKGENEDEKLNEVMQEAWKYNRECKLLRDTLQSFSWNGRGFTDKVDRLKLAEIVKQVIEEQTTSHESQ

[6] = target: Ephrin type-A receptor 2 (Homo sapiens) (UniProt P29317)
[7] = target: Tyrosine-protein kinase Lck (Homo sapiens) (UniProt P06239)
[8] = target: Serine/threonine-protein kinase RIO1 (Homo sapiens) (UniProt Q9BRS2)
[9] = test system: Receptor-type tyrosine-protein kinase FLT3 (Homo sapiens), P36888 [D835H]
[10] = target: T3, Inhibitor of nuclear factor kappa-B kinase subunit alpha (Homo sapiens) (UniProt O15111)
T3 sequence (whole entry): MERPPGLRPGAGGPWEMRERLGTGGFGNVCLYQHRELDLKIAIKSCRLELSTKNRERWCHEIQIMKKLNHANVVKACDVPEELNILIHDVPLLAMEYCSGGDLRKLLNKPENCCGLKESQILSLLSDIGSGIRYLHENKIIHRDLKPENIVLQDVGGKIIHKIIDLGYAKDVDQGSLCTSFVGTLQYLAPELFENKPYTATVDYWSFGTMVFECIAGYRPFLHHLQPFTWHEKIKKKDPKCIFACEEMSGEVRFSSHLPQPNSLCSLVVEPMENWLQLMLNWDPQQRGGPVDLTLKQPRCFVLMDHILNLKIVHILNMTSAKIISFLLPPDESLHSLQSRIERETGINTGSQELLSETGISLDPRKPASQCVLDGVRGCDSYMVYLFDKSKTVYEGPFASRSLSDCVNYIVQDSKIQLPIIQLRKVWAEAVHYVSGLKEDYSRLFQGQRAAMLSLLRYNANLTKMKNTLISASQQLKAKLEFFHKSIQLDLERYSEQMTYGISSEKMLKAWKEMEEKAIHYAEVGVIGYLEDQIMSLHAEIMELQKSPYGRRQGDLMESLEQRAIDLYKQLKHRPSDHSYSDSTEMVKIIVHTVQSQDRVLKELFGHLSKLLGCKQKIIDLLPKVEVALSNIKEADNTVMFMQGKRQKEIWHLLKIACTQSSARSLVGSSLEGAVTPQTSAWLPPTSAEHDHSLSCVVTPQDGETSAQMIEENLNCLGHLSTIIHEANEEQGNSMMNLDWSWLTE

[11] = Compound concentration 1000.0 nM
[12] = Compound concentration 100.0 nM

Measured: residual activity

Sequence of Serine/threonine-protein kinase RIO1 (Homo sapiens) (Q9BRS2 whole entry): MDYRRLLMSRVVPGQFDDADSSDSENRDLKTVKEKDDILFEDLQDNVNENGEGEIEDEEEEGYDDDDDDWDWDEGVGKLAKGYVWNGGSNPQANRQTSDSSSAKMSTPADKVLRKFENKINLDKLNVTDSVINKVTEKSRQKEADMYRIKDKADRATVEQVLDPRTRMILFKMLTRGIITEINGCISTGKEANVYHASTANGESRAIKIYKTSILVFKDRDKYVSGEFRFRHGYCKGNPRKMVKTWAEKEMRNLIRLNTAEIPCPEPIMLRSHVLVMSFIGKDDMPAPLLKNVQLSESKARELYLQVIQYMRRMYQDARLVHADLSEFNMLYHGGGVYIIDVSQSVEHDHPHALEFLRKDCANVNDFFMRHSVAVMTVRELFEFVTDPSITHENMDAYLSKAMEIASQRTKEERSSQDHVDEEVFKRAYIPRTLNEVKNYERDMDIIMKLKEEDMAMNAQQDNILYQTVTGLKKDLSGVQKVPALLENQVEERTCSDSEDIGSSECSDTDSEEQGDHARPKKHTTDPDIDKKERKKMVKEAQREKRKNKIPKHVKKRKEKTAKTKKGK
Sequence of Bone morphogenetic protein receptor type-1B (Homo sapiens) (O00238 whole entry): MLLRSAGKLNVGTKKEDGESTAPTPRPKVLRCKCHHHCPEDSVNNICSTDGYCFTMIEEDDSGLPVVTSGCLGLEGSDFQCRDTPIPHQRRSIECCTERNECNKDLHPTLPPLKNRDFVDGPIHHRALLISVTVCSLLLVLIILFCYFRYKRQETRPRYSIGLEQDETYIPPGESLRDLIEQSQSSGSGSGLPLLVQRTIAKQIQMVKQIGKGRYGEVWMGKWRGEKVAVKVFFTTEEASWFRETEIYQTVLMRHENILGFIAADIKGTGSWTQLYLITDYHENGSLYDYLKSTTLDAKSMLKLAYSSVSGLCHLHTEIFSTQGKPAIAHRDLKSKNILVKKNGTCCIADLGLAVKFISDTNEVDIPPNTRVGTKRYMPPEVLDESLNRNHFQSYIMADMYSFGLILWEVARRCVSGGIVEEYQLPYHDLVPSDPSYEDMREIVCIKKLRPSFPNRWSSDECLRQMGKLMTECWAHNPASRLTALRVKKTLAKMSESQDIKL
Sequence of Calcium/calmodulin-dependent protein kinase type II subunit gamma (Homo sapiens) (Q13555 whole entry): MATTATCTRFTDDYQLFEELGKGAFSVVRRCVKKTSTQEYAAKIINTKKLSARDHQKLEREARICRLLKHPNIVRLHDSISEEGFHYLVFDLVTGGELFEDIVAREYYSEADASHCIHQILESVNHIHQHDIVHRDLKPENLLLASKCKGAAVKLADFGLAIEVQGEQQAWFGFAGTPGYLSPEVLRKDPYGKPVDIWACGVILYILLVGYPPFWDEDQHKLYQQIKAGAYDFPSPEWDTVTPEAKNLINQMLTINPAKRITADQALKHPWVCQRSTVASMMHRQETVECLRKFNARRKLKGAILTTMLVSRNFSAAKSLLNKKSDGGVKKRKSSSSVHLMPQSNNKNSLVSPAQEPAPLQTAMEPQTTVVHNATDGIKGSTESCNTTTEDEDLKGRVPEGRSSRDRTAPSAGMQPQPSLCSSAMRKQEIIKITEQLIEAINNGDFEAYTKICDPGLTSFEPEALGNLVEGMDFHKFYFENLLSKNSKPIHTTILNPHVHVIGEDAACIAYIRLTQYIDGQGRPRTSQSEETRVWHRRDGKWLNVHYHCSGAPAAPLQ
Sequence of Ephrin type-A receptor 2 (Homo sapiens) (P29317 whole entry): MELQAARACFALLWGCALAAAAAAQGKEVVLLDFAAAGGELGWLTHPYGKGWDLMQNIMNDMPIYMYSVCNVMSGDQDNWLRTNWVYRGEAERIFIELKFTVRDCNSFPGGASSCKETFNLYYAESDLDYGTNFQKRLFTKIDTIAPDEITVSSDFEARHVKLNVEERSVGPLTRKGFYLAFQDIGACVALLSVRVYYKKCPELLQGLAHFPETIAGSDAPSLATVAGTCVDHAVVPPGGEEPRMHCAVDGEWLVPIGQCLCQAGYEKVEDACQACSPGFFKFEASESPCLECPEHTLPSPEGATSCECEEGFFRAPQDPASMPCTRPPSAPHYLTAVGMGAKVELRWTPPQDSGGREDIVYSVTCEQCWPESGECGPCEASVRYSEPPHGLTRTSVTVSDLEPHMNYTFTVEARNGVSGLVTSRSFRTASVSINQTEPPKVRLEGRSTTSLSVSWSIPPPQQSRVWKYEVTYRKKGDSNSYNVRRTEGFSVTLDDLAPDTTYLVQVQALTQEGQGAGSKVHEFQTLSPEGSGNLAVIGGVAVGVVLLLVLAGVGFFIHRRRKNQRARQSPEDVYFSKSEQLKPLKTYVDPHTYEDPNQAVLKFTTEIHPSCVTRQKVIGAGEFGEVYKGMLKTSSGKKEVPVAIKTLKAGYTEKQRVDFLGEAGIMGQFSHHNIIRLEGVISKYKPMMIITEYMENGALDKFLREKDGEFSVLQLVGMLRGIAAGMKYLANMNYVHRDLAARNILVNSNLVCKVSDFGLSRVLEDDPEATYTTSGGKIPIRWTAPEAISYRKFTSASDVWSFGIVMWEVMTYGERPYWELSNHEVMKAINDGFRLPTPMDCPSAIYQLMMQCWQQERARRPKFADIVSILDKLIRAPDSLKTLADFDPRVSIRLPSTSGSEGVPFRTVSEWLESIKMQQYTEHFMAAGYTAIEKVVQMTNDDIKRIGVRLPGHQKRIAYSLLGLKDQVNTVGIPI
Sequence of Serine/threonine-protein kinase PknB (Mycobacterium tuberculosis) (P9WI81 whole entry): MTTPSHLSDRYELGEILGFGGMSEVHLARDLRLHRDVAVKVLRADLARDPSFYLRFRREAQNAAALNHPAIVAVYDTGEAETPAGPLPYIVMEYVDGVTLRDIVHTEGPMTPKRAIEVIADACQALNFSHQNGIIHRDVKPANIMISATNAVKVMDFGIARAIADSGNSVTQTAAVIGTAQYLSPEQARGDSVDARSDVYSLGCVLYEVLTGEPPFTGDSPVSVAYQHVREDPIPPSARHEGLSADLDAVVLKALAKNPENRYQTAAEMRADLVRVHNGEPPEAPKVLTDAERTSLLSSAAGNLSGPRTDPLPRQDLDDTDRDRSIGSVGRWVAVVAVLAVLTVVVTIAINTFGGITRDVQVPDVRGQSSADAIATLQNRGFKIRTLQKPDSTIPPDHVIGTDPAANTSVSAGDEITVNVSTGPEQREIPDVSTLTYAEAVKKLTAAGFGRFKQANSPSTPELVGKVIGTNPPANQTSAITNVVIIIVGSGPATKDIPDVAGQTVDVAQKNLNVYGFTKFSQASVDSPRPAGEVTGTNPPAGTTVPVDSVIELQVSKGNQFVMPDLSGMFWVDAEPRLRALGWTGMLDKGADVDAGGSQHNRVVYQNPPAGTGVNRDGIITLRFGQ
Sequence of Tyrosine-protein kinase Lck (Homo sapiens) (P06239 2-509 limits assumed): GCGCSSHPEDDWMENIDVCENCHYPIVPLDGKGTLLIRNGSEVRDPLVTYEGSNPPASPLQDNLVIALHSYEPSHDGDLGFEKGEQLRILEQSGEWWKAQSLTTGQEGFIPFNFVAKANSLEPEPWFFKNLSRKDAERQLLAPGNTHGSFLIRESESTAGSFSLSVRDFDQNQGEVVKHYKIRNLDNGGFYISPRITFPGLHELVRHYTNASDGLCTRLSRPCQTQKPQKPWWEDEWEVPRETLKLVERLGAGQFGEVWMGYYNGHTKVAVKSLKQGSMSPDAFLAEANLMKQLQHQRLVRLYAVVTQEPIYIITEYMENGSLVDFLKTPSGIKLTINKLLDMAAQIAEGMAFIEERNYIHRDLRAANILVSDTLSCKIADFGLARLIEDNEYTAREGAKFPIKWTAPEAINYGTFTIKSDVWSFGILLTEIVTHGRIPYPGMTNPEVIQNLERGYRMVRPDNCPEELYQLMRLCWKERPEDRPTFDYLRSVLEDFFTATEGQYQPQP

C[C@@H]1CN(c2cc(-c3nn(C)c4ccc(OC5(C)CC5)cc34)ncn2)C[C@H](C)O1 [MLi-2-NC]
inactive: [1]; [11] 100% | [2]; [11] 77% | [3]; [11] 69% | [4]; [11] 90% | [5]; [11] 73% | [6]; [11] 100% | [7]; [11] 94% | [8]; [11] 89% | [9]; [11] 84% | [10]; [11] 75%

C[C@@H]1CN(c2cc(-c3n[nH]c4ccc(OC5(C)CC5)cc34)ncn2)C[C@H](C)O1 [MLi-2]
inactive: [1]; [12] 95% | [2]; [12] 81% | [3]; [12] 91% | [4]; [12] 100% | [5]; [12] 93% | [6]; [12] 72% | [7]; [12] 100% | [8]; [12] 100% | [9]; [12] 100% | [10]; [12] 76%
